Measurements taken from patent US11331299B2, “Medicinal use of serrulatane diterpenes” (The University of Sydney, priority 2016, dated 2022).

What was measured:
Assay in all cases: biochemical
enzymes (Bioprint panel) [1] = target: enzymes (Bioprint panel) (Homo sapiens, UniProt P24941); conditions: CDK2 (h) (cycA); 10 μM; read-out: % Inhibition of Control Values
enzymes (Bioprint panel) [2] = target: enzymes (Bioprint panel) (Homo sapiens, UniProt P08253); conditions: MMP-2 (h); 10 μM; read-out: % Inhibition of Control Values
Sequence of enzymes (Bioprint panel) (Homo sapiens, UniProt P08253) (P08253 110-660): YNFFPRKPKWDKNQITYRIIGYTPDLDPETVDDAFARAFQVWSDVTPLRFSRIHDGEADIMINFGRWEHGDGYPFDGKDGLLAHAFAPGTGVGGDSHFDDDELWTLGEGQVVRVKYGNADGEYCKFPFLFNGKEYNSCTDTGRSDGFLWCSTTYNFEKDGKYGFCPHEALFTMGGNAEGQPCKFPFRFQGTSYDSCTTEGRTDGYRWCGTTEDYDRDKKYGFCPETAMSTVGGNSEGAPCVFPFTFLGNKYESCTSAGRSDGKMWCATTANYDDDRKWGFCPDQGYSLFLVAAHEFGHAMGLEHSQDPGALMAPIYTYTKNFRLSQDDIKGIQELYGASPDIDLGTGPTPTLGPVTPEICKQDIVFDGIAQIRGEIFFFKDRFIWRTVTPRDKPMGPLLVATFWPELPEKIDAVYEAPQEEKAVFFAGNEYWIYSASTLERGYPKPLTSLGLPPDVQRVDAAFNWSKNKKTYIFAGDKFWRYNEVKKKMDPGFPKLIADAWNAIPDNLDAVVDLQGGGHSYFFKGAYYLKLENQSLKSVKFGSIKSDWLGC

enzymes (Bioprint panel) [3] = target: enzymes (Bioprint panel) (Homo sapiens, UniProt P22303); conditions: acetylcholinesterase (h); 10 μM; read-out: % Inhibition of Control Values
enzymes (Bioprint panel) [4] = target: T1, enzymes (Bioprint panel) (UniProt A0ABM2YAB8); conditions: MT3 (ML2) (agonist radioligand); 10 μM
T1 construct: other: MT3 (ML2) (agonist radioligand); 10 μM

enzymes (Bioprint panel) [5] = target: enzymes (Bioprint panel) (Bos taurus, UniProt P80457); conditions: xanthine oxidase/superoxide O2- scavenging; 10 μM; read-out: % Inhibition of Control Values
Sequence of enzymes (Bioprint panel) (Bos taurus, UniProt P80457) (P80457 whole entry): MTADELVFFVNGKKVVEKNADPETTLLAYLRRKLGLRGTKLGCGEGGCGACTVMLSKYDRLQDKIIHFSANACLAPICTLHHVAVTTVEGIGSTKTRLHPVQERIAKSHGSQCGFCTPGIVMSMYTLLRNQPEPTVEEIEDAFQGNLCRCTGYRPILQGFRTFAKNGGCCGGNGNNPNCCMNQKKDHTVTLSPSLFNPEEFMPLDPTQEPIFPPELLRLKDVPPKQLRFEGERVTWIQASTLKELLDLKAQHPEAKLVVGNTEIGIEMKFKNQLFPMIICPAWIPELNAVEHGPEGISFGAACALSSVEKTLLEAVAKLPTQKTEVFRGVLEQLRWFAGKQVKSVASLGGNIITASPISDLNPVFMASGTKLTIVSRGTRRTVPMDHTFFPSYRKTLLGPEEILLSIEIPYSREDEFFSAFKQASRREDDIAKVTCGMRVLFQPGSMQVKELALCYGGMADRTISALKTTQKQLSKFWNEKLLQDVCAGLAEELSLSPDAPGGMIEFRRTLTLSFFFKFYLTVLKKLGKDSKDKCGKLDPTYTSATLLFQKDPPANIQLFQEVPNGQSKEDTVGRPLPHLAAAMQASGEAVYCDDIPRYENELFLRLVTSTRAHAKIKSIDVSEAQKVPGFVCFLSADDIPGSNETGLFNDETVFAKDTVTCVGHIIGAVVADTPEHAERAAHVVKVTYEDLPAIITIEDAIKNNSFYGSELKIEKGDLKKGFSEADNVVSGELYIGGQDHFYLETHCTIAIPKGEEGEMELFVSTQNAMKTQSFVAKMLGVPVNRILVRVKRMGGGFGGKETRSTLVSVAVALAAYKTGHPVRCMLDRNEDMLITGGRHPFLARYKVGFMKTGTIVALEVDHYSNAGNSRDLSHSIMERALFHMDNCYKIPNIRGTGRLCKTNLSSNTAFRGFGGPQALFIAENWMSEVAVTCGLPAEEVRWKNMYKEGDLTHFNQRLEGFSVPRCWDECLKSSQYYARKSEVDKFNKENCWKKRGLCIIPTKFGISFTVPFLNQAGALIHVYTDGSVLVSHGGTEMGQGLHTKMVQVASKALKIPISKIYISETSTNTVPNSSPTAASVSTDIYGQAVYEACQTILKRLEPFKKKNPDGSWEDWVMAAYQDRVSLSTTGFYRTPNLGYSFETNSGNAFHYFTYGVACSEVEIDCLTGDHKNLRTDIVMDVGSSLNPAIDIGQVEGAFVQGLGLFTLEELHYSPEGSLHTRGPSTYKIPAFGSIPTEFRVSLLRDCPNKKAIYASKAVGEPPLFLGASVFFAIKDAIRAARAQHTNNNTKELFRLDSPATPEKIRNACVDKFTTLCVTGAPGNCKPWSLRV

enzymes (Bioprint panel) [6] = target: enzymes (Bioprint panel) (Homo sapiens, UniProt P06241); conditions: Fyn kinase (h); 10 μM; read-out: % Inhibition of Control Values
enzymes (Bioprint panel) [7] = target: T2, enzymes (Bioprint panel) (Bos taurus, UniProt P11541+P23439); conditions: PDE6 (non-selective); 10 μM; read-out: % Inhibition of Control Values
T2 construct: other: PDE6 (non-selective); 10 μM

[8] = target: receptors (Bioprint panel) (Homo sapiens, UniProt P08172); type: binding; conditions: […] M2 (h) (antagonist radioligand); 10 μM; read-out: % Inhibition of Control Specific Binding
Sequence of receptors (Bioprint panel) (Homo sapiens, UniProt P08172) (P08172 whole entry): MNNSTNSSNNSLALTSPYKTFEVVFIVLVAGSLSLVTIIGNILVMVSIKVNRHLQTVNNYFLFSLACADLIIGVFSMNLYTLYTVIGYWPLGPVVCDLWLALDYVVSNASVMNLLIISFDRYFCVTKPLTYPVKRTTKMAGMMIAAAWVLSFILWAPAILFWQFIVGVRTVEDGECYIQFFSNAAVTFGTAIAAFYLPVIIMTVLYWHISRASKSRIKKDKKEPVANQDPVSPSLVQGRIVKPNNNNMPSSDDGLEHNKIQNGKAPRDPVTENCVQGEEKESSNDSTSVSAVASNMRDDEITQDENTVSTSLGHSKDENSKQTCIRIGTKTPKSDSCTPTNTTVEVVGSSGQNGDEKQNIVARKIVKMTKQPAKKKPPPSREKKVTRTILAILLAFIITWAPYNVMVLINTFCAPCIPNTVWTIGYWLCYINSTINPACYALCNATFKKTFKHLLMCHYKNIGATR

[9] = target: receptors (Bioprint panel) (Rattus norvegicus, UniProt P28564); type: binding; conditions: read-out: % Inhibition of Control Specific Binding
[10] = target: receptors (Bioprint panel) (Homo sapiens, UniProt Q15722); type: binding; conditions: read-out: % Inhibition of Control Specific Binding
[11] = target: receptors (Bioprint panel) (Homo sapiens, UniProt P08173); type: binding; conditions: […] M4 (h) (antagonist radioligand); 10 μM; read-out: % Inhibition of Control Specific Binding
Sequence of receptors (Bioprint panel) (Homo sapiens, UniProt P08173) (P08173 whole entry): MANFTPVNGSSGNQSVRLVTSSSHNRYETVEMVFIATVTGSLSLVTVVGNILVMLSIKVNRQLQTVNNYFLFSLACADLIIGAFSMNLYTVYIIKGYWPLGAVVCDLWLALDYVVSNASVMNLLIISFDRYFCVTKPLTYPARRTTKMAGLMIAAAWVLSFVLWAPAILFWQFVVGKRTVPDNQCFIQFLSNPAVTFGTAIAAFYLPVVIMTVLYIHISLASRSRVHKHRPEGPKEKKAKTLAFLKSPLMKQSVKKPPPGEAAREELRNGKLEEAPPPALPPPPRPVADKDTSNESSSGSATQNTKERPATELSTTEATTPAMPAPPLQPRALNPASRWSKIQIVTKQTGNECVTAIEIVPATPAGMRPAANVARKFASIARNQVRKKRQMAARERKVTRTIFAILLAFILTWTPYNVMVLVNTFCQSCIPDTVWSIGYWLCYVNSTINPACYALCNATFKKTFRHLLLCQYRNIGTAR

[12] = target: receptors (Bioprint panel) (Homo sapiens, UniProt P25929); type: binding; conditions: NE[…] Y1 (h) (agonist radioligand); 10 μM; read-out: % Inhibition of Control Specific Binding
Sequence of receptors (Bioprint panel) (Homo sapiens, UniProt P25929) (P25929 whole entry): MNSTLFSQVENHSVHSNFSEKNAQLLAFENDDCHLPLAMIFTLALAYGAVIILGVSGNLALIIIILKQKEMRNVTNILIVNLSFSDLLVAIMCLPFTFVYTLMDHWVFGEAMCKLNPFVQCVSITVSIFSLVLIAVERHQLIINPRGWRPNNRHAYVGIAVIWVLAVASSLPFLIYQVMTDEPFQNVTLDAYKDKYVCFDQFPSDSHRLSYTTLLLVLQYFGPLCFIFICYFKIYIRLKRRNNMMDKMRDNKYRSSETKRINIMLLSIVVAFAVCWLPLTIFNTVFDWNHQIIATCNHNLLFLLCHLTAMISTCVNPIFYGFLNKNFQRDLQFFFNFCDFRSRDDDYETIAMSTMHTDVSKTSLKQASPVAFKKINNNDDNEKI

[13] = target: receptors (Bioprint panel) (Homo sapiens, UniProt Q9Y271); type: binding; conditions: read-out: % Inhibition of Control Specific Binding
[14] = target: receptors (Bioprint panel) (Homo sapiens, UniProt P25103); type: binding; conditions: NEUROKININ NK1 (h) (agonist radioligand); 10 μM; read-out: % Inhibition of Control Specific Binding
Sequence of receptors (Bioprint panel) (Homo sapiens, UniProt P25103) (P25103 whole entry): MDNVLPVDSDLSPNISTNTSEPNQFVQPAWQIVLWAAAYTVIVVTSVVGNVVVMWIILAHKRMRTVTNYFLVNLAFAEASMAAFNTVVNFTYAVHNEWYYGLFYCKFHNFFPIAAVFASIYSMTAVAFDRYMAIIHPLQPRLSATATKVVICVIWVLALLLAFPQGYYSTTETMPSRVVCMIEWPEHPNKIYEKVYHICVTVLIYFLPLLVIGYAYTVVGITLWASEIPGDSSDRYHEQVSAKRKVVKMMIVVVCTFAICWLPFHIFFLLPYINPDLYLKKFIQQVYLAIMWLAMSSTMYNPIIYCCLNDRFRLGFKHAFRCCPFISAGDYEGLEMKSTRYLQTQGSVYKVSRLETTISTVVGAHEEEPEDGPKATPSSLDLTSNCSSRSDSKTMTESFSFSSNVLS

[15] = target: receptors (Bioprint panel) (Homo sapiens, UniProt P07550); type: binding; conditions: […] beta 2 (h) (agonist radioligand); 10 μM; read-out: % Inhibition of Control Specific Binding
[16] = target: receptors (Bioprint panel) (Homo sapiens, UniProt P41146); type: binding; conditions: OPIOD & OPIOID-LIKE NOP (ORL1) (h) (agonist radioligand); 10 μM; read-out: % Inhibition of Control Specific Binding
Sequence of receptors (Bioprint panel) (Homo sapiens, UniProt P41146) (P41146 whole entry): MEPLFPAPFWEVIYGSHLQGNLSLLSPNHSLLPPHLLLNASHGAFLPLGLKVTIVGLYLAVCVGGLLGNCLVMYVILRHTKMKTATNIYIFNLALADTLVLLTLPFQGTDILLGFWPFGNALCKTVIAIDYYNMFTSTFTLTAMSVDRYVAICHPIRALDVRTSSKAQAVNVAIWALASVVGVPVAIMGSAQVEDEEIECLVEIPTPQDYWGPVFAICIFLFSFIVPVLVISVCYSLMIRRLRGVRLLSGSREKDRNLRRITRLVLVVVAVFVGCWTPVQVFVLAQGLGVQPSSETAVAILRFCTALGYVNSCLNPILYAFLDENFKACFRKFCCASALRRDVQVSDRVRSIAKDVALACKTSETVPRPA

[17] = target: receptors (Bioprint panel) (Homo sapiens, UniProt P50406); type: binding; conditions: read-out: % Inhibition of Control Specific Binding
[18] = target: receptors (Bioprint panel) (Homo sapiens, UniProt Q9Y5N1); type: binding; conditions: HISTAMINE H3 (h) (agonist radioligand); 10 μM; read-out: % Inhibition of Control Specific Binding
[19] = target: receptors (Bioprint panel) (Homo sapiens, UniProt P35368); type: binding; conditions: […] alpha 1B (h) (antagonist radioligand); 10 μM; read-out: % Inhibition of Control Specific Binding
[20] = target: receptors (Bioprint panel) (Homo sapiens, UniProt P21554); type: binding; conditions: CANNABINOID CB1 (h) (agonist radioligand); 10 μM; read-out: % Inhibition of Control Specific Binding
[21] = target: receptors (Bioprint panel) (Homo sapiens, UniProt P30518); type: binding; conditions: VASOPRESSIN V2 (h) (agonist radioligand); 10 μM; read-out: % Inhibition of Control Specific Binding
Sequence of receptors (Bioprint panel) (Homo sapiens, UniProt P30518) (P30518 whole entry): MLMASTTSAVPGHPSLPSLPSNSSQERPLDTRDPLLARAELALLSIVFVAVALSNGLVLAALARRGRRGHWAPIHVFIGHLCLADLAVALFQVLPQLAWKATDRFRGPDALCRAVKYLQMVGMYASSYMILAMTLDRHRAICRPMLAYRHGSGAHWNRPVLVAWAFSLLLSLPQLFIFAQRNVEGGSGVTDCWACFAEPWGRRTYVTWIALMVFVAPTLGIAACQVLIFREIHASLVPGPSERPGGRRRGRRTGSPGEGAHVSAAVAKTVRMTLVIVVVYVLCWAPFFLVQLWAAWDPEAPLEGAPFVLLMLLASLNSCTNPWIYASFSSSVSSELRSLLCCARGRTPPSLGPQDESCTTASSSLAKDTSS

[22] = target: receptors (Bioprint panel) (Homo sapiens, UniProt P32247); type: binding; conditions: BOMBESIN BB3 (h) (agonist radioligand); 10 μM; read-out: % Inhibition of Control Specific Binding
[23] = target: receptors (Bioprint panel) (Homo sapiens, UniProt P30872); type: binding; conditions: SOMASTATIN sst1 (h) (agonist radioligand); 10 μM; read-out: % Inhibition of Control Specific Binding
[24] = target: receptors (Bioprint panel) (Homo sapiens, UniProt P46098); type: binding; conditions: read-out: % Inhibition of Control Specific Binding
[25] = target: receptors (Bioprint panel) (Homo sapiens, UniProt O43193); type: binding; conditions: motilin(h) (agonist radioligand); 10 μM; read-out: % Inhibition of Control Specific Binding
[26] = target: receptors (Bioprint panel) (Homo sapiens, UniProt P28335); type: binding; conditions: read-out: % Inhibition of Control Specific Binding
Sequence of receptors (Bioprint panel) (Homo sapiens, UniProt P28335) (P28335 33-458): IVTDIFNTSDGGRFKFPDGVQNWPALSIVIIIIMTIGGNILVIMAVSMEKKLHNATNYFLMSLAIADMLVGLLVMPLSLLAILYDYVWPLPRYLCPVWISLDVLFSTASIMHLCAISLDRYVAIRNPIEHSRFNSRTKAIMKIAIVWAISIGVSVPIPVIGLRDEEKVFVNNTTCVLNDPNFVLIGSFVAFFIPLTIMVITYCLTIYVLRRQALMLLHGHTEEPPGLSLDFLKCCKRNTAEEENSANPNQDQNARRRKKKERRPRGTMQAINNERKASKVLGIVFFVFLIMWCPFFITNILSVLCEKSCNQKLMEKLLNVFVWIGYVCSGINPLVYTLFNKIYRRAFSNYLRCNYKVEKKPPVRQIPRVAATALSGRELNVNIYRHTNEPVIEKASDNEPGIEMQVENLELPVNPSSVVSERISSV

For `CC(C)=CCC[C@H](CO)[C@@H]1CC[C@@H](C)c2c1cc(C)c(O)c2O` [Compound 1, 7,8,18-trihydroxyserrulat-14-ene], the inhibition at 10 µM (enzymes (Bioprint panel) [1]) was 12%, the inhibition at 10 µM (enzymes (Bioprint panel) [2]) was 0% and the inhibition at 10 µM (enzymes (Bioprint panel) [3]) was 32%. For the same compound, the “% Inhibition of Control Values” (enzymes (Bioprint panel) [4]) was 31%, the inhibition at 10 µM (enzymes (Bioprint panel) [5]) was -140% and the inhibition at 10 µM (enzymes (Bioprint panel) [6]) was 6%. It also gave an inhibition at 10 µM (enzymes (Bioprint panel) [7]) of 4%, an inhibition at 10 µM [8] of 1% and an inhibition at 10 µM [9] of 42%. It also gave an inhibition at 10 µM [10] of 27%, an inhibition at 10 µM [11] of 19% and an inhibition at 10 µM [12] of 29%. The inhibition at 10 µM [13] was 10%, the inhibition at 10 µM [14] was 62% and the inhibition at 10 µM [15] was 2%. The inhibition at 10 µM [16] was -4%, the inhibition at 10 µM [17] was 42% and the inhibition at 10 µM [18] was 10%. For the same compound, the inhibition at 10 µM [19] was 41%, the inhibition at 10 µM [20] was 46% and the inhibition at 10 µM [21] was 11%. It also gave an inhibition at 10 µM [22] of 26%, an inhibition at 10 µM [23] of 18% and an inhibition at 10 µM [24] of -2%. For the same compound, the inhibition at 10 µM [25] was -12% and the inhibition at 10 µM [26] was 32%.
